Test results published in the supplement of paper PMC10307832.

Key:
Test in all cases: relative viability (nuclei count vs DMSO), 5 days (fraction); higher = more cells survive
Fedratinib = compound: Cc1cnc(Nc2ccc(OCCN3CCCC3)cc2)nc1Nc1cccc(S(=O)(=O)NC(C)(C)C)c1 [Fedratinib]
Outline: (§1)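 A plate was accepted only when its control CV was below 25% and the cells had doubled at least once. Viability is defined from nuclear counts as treated wells divided by vehicle wells, with the median taken across plates. That median covers lung cancer cell lines grown in 1536-well plates, dosed by pinning at five √10-spaced library-drug concentrations, and counted in MetaXpress from 4× Hoechst images after 5 days.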

GW-2580 = compound: COC1=CC=C(C=C1)COC2=C(C=C(C=C2)CC3=CN=C(N=C3N)N)OC [GW-2580]
Outline: as §1

Fedratinib + Pemetrexed = compound: Cc1cnc(Nc2ccc(OCCN3CCCC3)cc2)nc1Nc1cccc(S(=O)(=O)NC(C)(C)C)c1 [Fedratinib] + Nc1nc2[nH]cc(CCc3ccc(C(=O)N[C@@H](CCC(=O)O)C(=O)O)cc3)c2c(=O)[nH]1 [Pemetrexed] (partner 0.2 µM)
Outline: (§2)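 Lung cancer cell lines were pin-tool dosed in 1536-well plates on the day after seeding, with either a lone drug or a fixed anchor-drug dose plus five library-drug doses (not always all listed) in √10 steps. Nuclei were counted on 4× images after 5 days. Relative viability is the ratio of treated-well to vehicle-well nuclei counts, with each value a median of duplicate plates.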

Fedratinib + Vorinostat = compound: Cc1cnc(Nc2ccc(OCCN3CCCC3)cc2)nc1Nc1cccc(S(=O)(=O)NC(C)(C)C)c1 [Fedratinib] + O=C(CCCCCCC(=O)Nc1ccccc1)NO [Vorinostat] (partner 1 µM)
Outline: as §2

GW-2580 + OSI-027 = compound: COC1=CC=C(C=C1)COC2=C(C=C(C=C2)CC3=CN=C(N=C3N)N)OC [GW-2580] + COc1cccc2cc(-c3nc([C@H]4CC[C@H](C(=O)O)CC4)n4ncnc(N)c34)[nH]c12 [OSI-027] (partner 0.5 µM)
Outline: as §2

Cell Line	relative viability (Fedratinib; 0.1 µM)	relative viability (Fedratinib; 0.3162 µM)	relative viability (Fedratinib; 1 µM)	relative viability (GW-2580; 0.08 µM)	relative viability (GW-2580; 0.8 µM)	relative viability (GW-2580; 2.53 µM)	relative viability (GW-2580; 8 µM)	relative viability (Fedratinib + Pemetrexed; first compound 0.1 µM)	relative viability (Fedratinib + Pemetrexed; first compound 0.3162 µM)	relative viability (Fedratinib + Pemetrexed; first compound 1 µM)	relative viability (Fedratinib + Vorinostat; first compound 0.1 µM)	relative viability (Fedratinib + Vorinostat; first compound 0.3162 µM)	relative viability (Fedratinib + Vorinostat; first compound 1 µM)	relative viability (GW-2580 + OSI-027; first compound 0.08 µM)	relative viability (GW-2580 + OSI-027; first compound 0.8 µM)	relative viability (GW-2580 + OSI-027; first compound 2.53 µM)	relative viability (GW-2580 + OSI-027; first compound 8 µM)
201T	0.963	1	0.918	0.974	1.13	1.06	0.959	0.332	0.336	0.314	0.935	0.975	0.955	0.647	0.994	1.09	0.797
A549	0.998	0.937	0.958	1.01	1.12	0.944	0.932	–	–	–	–	–	–	–	–	–	–
A-427	0.928	1.02	0.555	1.05	1.11	0.86	0.881	0.97	0.848	0.939	0.873	0.792	0.781	0.453	0.371	0.518	0.435
ABC-1	0.827	0.954	0.816	0.956	1.14	0.869	0.883	–	–	–	0.983	1.06	0.888	0.471	0.533	0.502	0.53
BEN	0.842	0.91	0.831	0.949	1.08	0.776	0.905	0.653	0.755	0.669	0.544	0.577	0.55	0.281	0.273	0.267	0.31
CAL-12T	0.93	0.996	0.859	0.995	1.03	0.933	1.01	1.02	1.2	1.31	0.747	0.84	0.681	0.609	0.853	0.526	0.699
COR-L23	0.958	1.04	1.03	1.15	1.12	1.03	0.932	0.177	0.218	0.184	0.407	0.487	0.392	1.01	0.994	0.655	0.753
COR-L 105	0.827	1.1	0.664	1.01	1.05	0.932	0.908	0.96	1.1	0.827	0.825	0.904	0.676	0.662	0.807	0.713	0.676
Calu-6	1.03	1.04	0.971	1.12	1.1	0.96	1.04	–	–	–	–	–	–	–	–	–	–
ChaGo-K-1	0.953	0.948	0.958	0.938	0.985	1.01	0.999	0.273	0.254	0.253	0.74	0.757	0.718	0.625	0.548	0.532	0.575
EBC-1	0.893	0.988	0.878	1.07	1.17	0.889	0.949	–	–	–	–	–	–	–	–	–	–
EKVX	1.06	0.952	0.978	0.962	1.22	0.81	0.941	0.377	0.431	0.392	0.736	0.737	0.728	0.692	0.755	0.73	0.67
EMC-BAC-2	1.1	1.01	0.833	1.02	1.12	0.643	0.901	0.425	0.481	0.39	0.418	0.566	0.317	0.364	0.384	0.364	0.337
EPLC-272H	0.921	0.938	0.327	0.995	1.15	0.763	0.891	0.389	0.272	0.343	0.547	0.375	0.335	0.284	0.308	–	0.273
H3255	0.963	0.923	0.86	0.954	1.2	0.894	0.85	0.531	0.559	0.563	0.84	0.876	0.696	0.577	0.606	0.622	0.595
HARA	0.863	0.903	0.803	1.11	1.16	0.951	0.902	0.253	0.259	0.185	0.512	0.629	0.51	0.504	0.452	0.491	0.395
HCC-15	0.869	0.972	0.911	1.08	1.19	0.98	1.02	0.212	0.225	0.202	0.875	0.824	0.845	0.743	0.787	0.596	0.656
HCC-44	0.963	0.982	0.882	0.981	1.03	0.896	1.01	0.646	0.638	0.68	1.13	1.08	1.01	0.51	0.523	0.5	0.524
HCC-78	0.87	0.869	0.96	0.95	1.21	0.675	0.933	0.963	0.838	0.881	0.382	0.514	0.469	0.362	0.434	0.337	0.337
HCC-366	0.997	1.02	0.962	0.997	1.06	1.11	1.07	0.154	0.168	0.142	0.302	0.343	0.249	0.944	1.13	0.894	0.818

Cell Line	relative viability (Fedratinib; 0.1 µM)	relative viability (Fedratinib; 0.3162 µM)	relative viability (Fedratinib; 1 µM)	relative viability (GW-2580; 0.08 µM)	relative viability (GW-2580; 0.8 µM)	relative viability (GW-2580; 2.53 µM)	relative viability (GW-2580; 8 µM)	relative viability (Fedratinib + Pemetrexed; first compound 0.1 µM)	relative viability (Fedratinib + Pemetrexed; first compound 0.3162 µM)	relative viability (Fedratinib + Pemetrexed; first compound 1 µM)	relative viability (Fedratinib + Vorinostat; first compound 0.1 µM)	relative viability (Fedratinib + Vorinostat; first compound 0.3162 µM)	relative viability (Fedratinib + Vorinostat; first compound 1 µM)	relative viability (GW-2580 + OSI-027; first compound 0.08 µM)	relative viability (GW-2580 + OSI-027; first compound 0.8 µM)	relative viability (GW-2580 + OSI-027; first compound 2.53 µM)	relative viability (GW-2580 + OSI-027; first compound 8 µM)
HCC-827	1.07	1.01	1.03	1.06	1.05	1.04	0.965	0.233	0.271	0.256	0.862	0.841	0.75	0.848	0.906	0.278	0.687
HOP-62	1.01	0.907	0.987	1.06	1.12	0.982	1.03	0.26	0.244	0.322	0.64	0.605	0.594	0.905	0.801	0.847	0.985
IA-LM	1.01	0.87	0.931	0.849	1.1	0.913	0.936	–	–	–	0.901	0.95	0.979	–	–	–	–
LC-2-ad	0.983	1.03	0.588	1.04	1.14	1.01	0.988	0.284	0.267	0.277	0.582	0.804	0.705	0.88	0.867	0.87	0.78
LCLC-97TM1	1.05	1.02	0.778	0.972	1.07	0.848	1.03	0.204	0.151	0.169	0.74	0.669	0.456	0.556	0.614	0.624	0.426
LCLC-103H	0.952	1	0.932	0.999	0.909	0.977	0.927	0.487	0.521	0.469	0.768	0.752	0.718	0.482	0.434	0.482	0.458
LK-2	1.09	1.03	0.734	1.18	0.988	0.742	1.02	0.171	0.207	0.233	0.37	0.242	0.303	0.208	0.19	0.208	0.189
LOU-NH91	0.893	1.08	0.723	0.987	1.05	0.843	0.973	0.43	0.351	0.399	0.777	1.09	0.782	0.706	0.808	0.678	0.721
LU99A	0.969	0.934	0.924	0.991	0.875	0.949	0.916	0.181	0.174	0.197	0.454	0.513	0.41	0.294	0.263	0.306	0.34
LXF-289	0.978	0.997	0.974	1.03	1.08	0.988	0.937	0.89	0.872	0.884	0.765	0.748	0.775	0.999	0.859	0.857	0.731
NCI-H23	1.01	0.908	0.597	1.03	1.11	0.983	0.99	0.681	0.59	0.497	0.56	0.36	0.453	0.561	0.644	0.599	0.347
NCI-H322M	0.873	1	0.678	0.941	1.1	0.971	0.946	0.61	0.651	0.538	0.87	0.969	0.735	0.528	0.562	0.634	0.538
NCI-H358	0.999	0.911	0.884	0.965	1.03	0.874	0.789	0.175	0.155	0.156	0.656	0.654	0.634	0.944	0.817	0.667	0.742
NCI-H441	1.03	1.04	0.734	1.07	0.924	1.01	1.14	0.267	0.242	0.232	0.921	0.749	0.615	0.653	0.634	0.586	0.77
NCI-H727	1.03	0.928	0.813	1.14	1.03	0.971	0.823	–	–	–	1.15	1.08	1.13	0.595	0.761	0.629	0.575
NCI-H1299	1.01	1.03	1	1.08	1.03	1	0.937	–	–	–	–	–	–	–	–	–	–
NCI-H1563	0.949	1.04	0.933	0.982	0.966	0.876	0.912	0.737	0.624	0.824	–	–	–	0.827	0.803	0.737	0.707
NCI-H1623	1.04	0.987	0.935	0.947	0.998	0.828	0.96	–	–	–	–	–	–	0.4	0.475	0.393	0.428
NCI-H1703	0.518	0.794	0.686	0.855	0.991	1.02	0.919	–	–	–	–	–	–	–	–	–	–
NCI-H1792	0.835	0.989	0.815	0.939	1.18	0.92	0.842	0.784	0.67	0.597	–	–	–	0.763	1.14	–	0.883
